# Structures can show the parent of a compound that is named as a salt. Where two headings read alike, the source gives them in different places.
# Experiments:
# [1] = Thermocycling of the monofumarate salt (Experiment Reference 9); format: physicochemical; settings: for XRPD (moist pellet): form (pattern) of wet pellet after thermocycling; for XRPD crystallinity (oven dried): tabernanthalog monofumarate salt thermocycled between 20° C. and peak T (75% of solvent b.p.), solvent, input and number of cycles per sample reference
# Experimental: The tabernanthalog monofumarate salt (Pattern #1, 75 mg, 1 wt) was weighed out in to 4 separate vials and the corresponding solvents (750 μl, 10 vol) from Table 89 were charged.
# The suspensions underwent constant amplitude thermocycling at +0.5° C./min up to 75% of the relevant solvent b.p. and −0.5° C./min down to 20° C. The thermocycle was repeated 5 times for 9-A (Experiment Reference 9-Sample Reference A) to 9-D (Experiment Reference 9-Sample Reference D) prior to working up the samples, analyzed the by XRPD (wet and dry). 9-E (Experiment Reference 9-Sample Reference E) and 9-F (Experiment Reference 9-Sample Reference F) were subjected to 10 cycles and 9-G (Experiment Reference 9-Sample Reference G) to 35 cycles.
# Thermocycling in different solvents can promote the formation of alternative polymorphic forms. The tabernanthalog monofumarate salt (Pattern #1), was heated and cooled between 20° C. and 75% of the relevant solvent b.p. at 0.5° C./minute, for 5 consecutive cycles; a 10-minute dwell was incorporated at each inflection. Thermocycling is ripening technique, that encourages particle size enlargement and promotes the evolution of the API into a stable phase. […] The products were analyzed both wet and dry to determine if form changes had occurred, all products were consistent with previously encountered patterns, and by DSC none of the products were single phase.
# [2] = cited from earlier work
# [3] = Stability examination of supplied monofumarate material at 40° C./75% RH (Example 5, Experiment Reference 2); format: physicochemical
# [4] = Equilibrium humidity evaluation 75% RH/40° C., 10 days (Example 8, Experiment 6); format: physicochemical
# Experimental: The experimental procedure that accompany this experiment is provided in Section G.ii.
# All forms were maintained under constant equilibrium humidity (75% RH). XRPD, DSC, TGA, PLM and ^1H NMR analyses were performed on the absorbents at t=5 d and t=10 d, to confirm their physical fates and to determine the extent of residual solvent exchange or sequestration.
# 100 mg portions of Tabernanthalog salts ([…]) were placed in the relevant open vials. The powders were finely divided and distributed evenly over the base of the vial, such that equal material coverage across the panel was observed. These samples were then maintained 40° C. under 75% RH. The samples were sub-sampled at intervals of 5 and 10 days and analyzed by ^1H NMR, HPLC, XRPD, DSC, TGA and PLM, for evidence of phase change or chemical degradation.
# [5] = Dynamic vapour sorption (DVS) of selected salts (Example 8); format: physicochemical
# Experimental: DVS: The moisture sorption properties of the feed API were analyzed by DVS Intrinsic instrument (Surface Measurement System). Approximately 20-50 mg of API was weighed on an aluminum pan and loaded into the instrument equilibrated at 25° C. The sample was allowed to equilibrate under dry atmosphere (0% relative humidity) for 60 minutes before increasing the humidity from 0% to 30% at 5% step increment and from 30% to 90% at 10% step increment. A desorption cycle was also applied from 90% to 30% (10% step) and from 30% to 0% (5% decrement). A rate of change in mass per time unit (dm/dt) of 0.002%/min was set as the equilibrium parameter. Kinetic and isotherm graphs were calculated.
# [6] = counter ion (acid), theoretical pKa value
compound,measurement,setting,value
COc1ccc2c3c([nH]c2c1)CCN(C)CC3.O=C(O)/C=C/C(=O)O [Pattern 9-F],XRPD (moist pellet),[1],Pattern #2c
same,crystal form change following dry,"[1]; moist pellet vs oven dried pellet after thermocycling, ✓ / x",✓
same,XRPD crystallinity (oven dried),[1],82.3%
(−)-L-Malic acid,pKa1,[2]; [6],3.5
same,pKa2,[2]; [6],5.1
same,pKa1,[2]; counter ion of the salt screen,3.50
same,pKa2,[2]; counter ion of the salt screen,5.10
"COc1ccc2c3c([nH]c2c1)CCN(C)CC3 [supplied material (Pattern #1), 8-methoxy-3-methyl-1H,2H,3H,4H,5H,6H-azepino[4,5-b]indole fumarate]",physical and chemical stability,"[3]; 75% RH at 40° C., open vial and double polyethene bagged, up to 5 w, XRPD, HPLC, TGA, DSC, fumarate","no evidence for hydrate formation, chemical degradation or disproportionation"
COc1ccc2c3c([nH]c2c1)CCN(C)CC3.O=C(O)C(O)C(O)C(=O)O [tabernanthalog tartrate salt],change in chemical purity (trended HPLC),"[4]; 75% RH/40° C., after 10 days",largest decrease in chemical purity
same,"water uptake / hydrate formation (TGA, DSC)","[4]; 75% RH/40° C., t=5 d and t=10 d",no significant water absorption
same,powder diffraction pattern versus input (form stability),"[4]; 75% RH/40° C., t=5 days and t=10 days",no significant changes to the powder diffraction pattern
same,"Tabernanthalog RRT = 1.00 (trended HPLC data, chemical purity)","[4]; Tartrate salt, input before humidity exposure",99.39
same,DVS sorption/desorption isotherm,"[5]; 0 to 90 to 0% RH, 25° C., dm/dt 0.002%/min",hygroscopic type of isotherm
same,"DVS 0 to 90 to 0% RH (dm/dt <0.002%), mass change","[5]; desorption, 0.0% RH",0.02%
same,"DVS 0 to 90 to 0% RH (dm/dt <0.002%), mass change","[5]; desorption, 5.0% RH",0.03%
same,"DVS 0 to 90 to 0% RH (dm/dt <0.002%), mass change","[5]; desorption, 10.0% RH",0.04%
same,"DVS 0 to 90 to 0% RH (dm/dt <0.002%), mass change","[5]; desorption, 15.0% RH",0.07%
same,"DVS 0 to 90 to 0% RH (dm/dt <0.002%), mass change","[5]; desorption, 20.0% RH",0.08%
same,"DVS 0 to 90 to 0% RH (dm/dt <0.002%), mass change","[5]; desorption, 25.0% RH",0.11%
same,"DVS 0 to 90 to 0% RH (dm/dt <0.002%), mass change","[5]; desorption, 30.0% RH",0.13%
same,"DVS 0 to 90 to 0% RH (dm/dt <0.002%), mass change","[5]; desorption, 40.0% RH",0.20%
same,"DVS 0 to 90 to 0% RH (dm/dt <0.002%), mass change","[5]; desorption, 50.0% RH",0.27%
same,"DVS 0 to 90 to 0% RH (dm/dt <0.002%), mass change","[5]; desorption, 60.0% RH",0.37%
same,"DVS 0 to 90 to 0% RH (dm/dt <0.002%), mass change","[5]; desorption, 70.0% RH",0.51%
same,"DVS 0 to 90 to 0% RH (dm/dt <0.002%), mass change","[5]; desorption, 80.0% RH",0.75%
same,"DVS 0 to 90 to 0% RH (dm/dt <0.002%), mass change","[5]; desorption, 90.0% RH",1.34%
same,"DVS 0 to 90 to 0% RH (dm/dt <0.002%), mass change","[5]; sorption, 0.0% RH",0.00%
same,"DVS 0 to 90 to 0% RH (dm/dt <0.002%), mass change","[5]; sorption, 5.0% RH",0.01%
same,"DVS 0 to 90 to 0% RH (dm/dt <0.002%), mass change","[5]; sorption, 10.0% RH",0.02%
same,"DVS 0 to 90 to 0% RH (dm/dt <0.002%), mass change","[5]; sorption, 15.0% RH",0.04%
same,"DVS 0 to 90 to 0% RH (dm/dt <0.002%), mass change","[5]; sorption, 20.0% RH",0.05%
same,"DVS 0 to 90 to 0% RH (dm/dt <0.002%), mass change","[5]; sorption, 25.0% RH",0.07%
same,"DVS 0 to 90 to 0% RH (dm/dt <0.002%), mass change","[5]; sorption, 30.0% RH",0.10%
same,"DVS 0 to 90 to 0% RH (dm/dt <0.002%), mass change","[5]; sorption, 40.0% RH",0.16%
same,"DVS 0 to 90 to 0% RH (dm/dt <0.002%), mass change","[5]; sorption, 50.0% RH",0.24%
same,"DVS 0 to 90 to 0% RH (dm/dt <0.002%), mass change","[5]; sorption, 60.0% RH",0.34%
same,"DVS 0 to 90 to 0% RH (dm/dt <0.002%), mass change","[5]; sorption, 70.0% RH",0.48%
same,"DVS 0 to 90 to 0% RH (dm/dt <0.002%), mass change","[5]; sorption, 80.0% RH",0.72%
same,"DVS 0 to 90 to 0% RH (dm/dt <0.002%), mass change","[5]; sorption, 90.0% RH",1.34%
COc1ccc2c3c([nH]c2c1)CCN(C)CC3.O=C(O)C(O)C(O)C(=O)O [Sample 6-B1],"Tabernanthalog RRT = 1.00 (trended HPLC data, chemical purity)","[4]; Tartrate salt, t = 5 d at 75% RH at 40° C.",98.86
COc1ccc2c3c([nH]c2c1)CCN(C)CC3.O=C(O)/C=C/C(=O)O [Tabernanthalog fumarate (CAT8931)],HPLC (% area),"[3]; 2-A, open-necked, wide vial at 75% RH/40° C., t = 2 w",97.26 % area
same,HPLC (% area),"[3]; 2-A, open-necked, wide vial at 75% RH/40° C., t = 3 w",97.01 % area
same,HPLC (% area),"[3]; 2-A, open-necked, wide vial at 75% RH/40° C., t = 4 w",97.98 % area
same,HPLC (% area),"[3]; 2-A, open-necked, wide vial at 75% RH/40° C., t = 5 w",97.34 % area
same,HPLC (% area),"[3]; 2-B, sealed PK0056 electrostatic bags at 75% RH/40° C., t = 2 w",97.44 % area
same,HPLC (% area),"[3]; 2-B, sealed PK0056 electrostatic bags at 75% RH/40° C., t = 3 w",97.02 % area
same,HPLC (% area),"[3]; 2-B, sealed PK0056 electrostatic bags at 75% RH/40° C., t = 4 w",98.38 % area
same,HPLC (% area),"[3]; 2-B, sealed PK0056 electrostatic bags at 75% RH/40° C., t = 5 w",97.54 % area
same,HPLC (% area),"[3]; input batch, before exposure",97.64 % area
COc1ccc2c3c([nH]c2c1)CCN(C)CC3.O=C(O)/C=C/C(=O)O [Pattern 9-D],XRPD (moist pellet),[1],Pattern #3
same,XRPD crystallinity (oven dried),[1],74.5%
COc1ccc2c3c([nH]c2c1)CCN(C)CC3.O=C(O)/C=C/C(=O)O [Sample 6-A1],"Tabernanthalog RRT = 1.00 (trended HPLC data, chemical purity)","[4]; Fumarate salt, t = 5 d at 75% RH at 40° C.",99.12
"O=S(=O)(O)CCS(=O)(=O)O [Ethane-1,2-disulfonic acid]",pKa1,[2]; counter ion of the salt screen,−2.10
same,pKa2,[2]; counter ion of the salt screen,−1.50
COc1ccc2c3c([nH]c2c1)CCN(C)CC3.O=C(O)/C=C/C(=O)O [8-A4 of Example 5],"Tabernanthalog RRT = 1.00 (trended HPLC data, chemical purity)","[4]; Fumarate salt, input before humidity exposure",99.04
C/C=C/C=C/C(=O)O.COc1ccc2c3c([nH]c2c1)CCN(C)CC3 [Sample 6-D2],"Tabernanthalog RRT = 1.00 (trended HPLC data, chemical purity)","[4]; Sorbate salt, t = 10 d at 75% RH at 40° C.",99.70
CCS(=O)(=O)O [Ethane sulfonic acid],pKa1,[2]; [6],2.05
O=C[C@H](O)[C@@H](O)[C@H](O)[C@H](O)C(=O)O [D-Glucuronic acid],pKa1,[2]; [6],3.2
same,pKa1,[2]; counter ion of the salt screen,3.20
